From PMC9747717, “A novel small molecule inhibitor of human Drp1” (Scientific Reports, 2022)

What was measured:
[1] = system: human iPSC-derived cardiomyocytes; assay: Doxorubicin-induced cardiomyocyte injury, LDH release; format: cell-based; conditions: doxorubicin 5 µM alone, 2 days
Experimental: Cardiomyocytes were derived from human induced pluripotent stem cells (iPSCs, CERA007c6 cell line) as previously described with modifications[26],[27]. Briefly, human iPSCs were seeded onto Matrigel (Corning) coated plates at a density of 1.25 × 10^5 cells/cm^2 in TeSR-E8 medium supplemented with 10 μM Y−27632 (Abcam). After 48 h (cells ~ 90% confluent) (day 0), medium was replaced with RPMI-1640 basal medium (Thermo Fisher Scientific) containing B-27 without insulin supplement (Thermo Fisher Scientific), growth factor reduced Matrigel (1:60 dilution) and 10 μM CHIR99021 (Cayman Chemical). At day 1, medium was replaced with RPMI 1640 basal medium containing B-27 without insulin supplement. […]
Enriched cardiomyocytes were replated onto Matrigel-coated 48-well plates at a cell density of 5 × 10^4 cells/cm^2 for 2 days. […] LDH levels in the conditioned media were assessed using a colorimetric CyQUANT LDH Cytotoxicity Assay Kit (Thermo Fisher Scientific) according to manufacturer’s protocol. […] Following the incubation at room temperature for 30 min in the dark, 50 μL of Stop Solution was added and absorbance was measured at 490 nm and 680 nm on a microplate spectrophotometer (Bio-Rad). All readings were then corrected for the background signal from the culture media and expressed as fold change.

[2] = Dynamic light scattering (DLS) compound aggregation threshold; format: physicochemical
Experimental: Identification of compound aggregation threshold was performed using DLS Zetasizer Nano ZS (Malvern Pananalytical, Worcestershire, UK). 100 µL of samples were measured in low-volume plastic micro cuvettes (BrandTech Scientific, CT, USA) at 25 °C using default size measurement settings. […] Mdivi-1 and DRP1i27 were serially diluted three-fold from 500 µM until the volume distribution of particle size was similar to that of the DMSO control. To specifically determine aggregation threshold, further dilution was carried out between concentrations where aggregation was first observed.

[3] = biological target: T1, human Drp1 isoform 3 (Homo sapiens, UniProt O00429); assay: Drp1 GTPase activity, colorimetric malachite green assay; format: biochemical
T1 construct: His tag; made in house; host or cells: E. coli Rosetta (DE3), pET21b vector
Experimental: The GTPase activity of Drp1, which is required for the latter to mediate mitochondrial fission, was examined using the colorimetric GTPase assay kit (Innova Biosciences, Cambridge, UK) according to the manufacturer’s instructions. Compounds were diluted in DMSO (all with a final concentration of 0.1% DMSO). Recombinant human Drp1 protein isoform-3 (final concentration 0.25 ng/µL) was diluted in assay buffer containing 50 mM Tris HCl (pH 7.5) and 2.5 mM MgCl2, followed by incubation with compounds for 15 min at 37 °C in a 96 well plate. 0.5 mM GTP, diluted in assay buffer, was then added into the mixture followed by incubation at 37 °C for 30 min.
Upon binding to Drp1, GTP is hydrolysed into GDP and free phosphate (Pi)[24]. Therefore, the degree of GTPase inhibition was assessed by measuring the concentration of Pi released into the assay buffer, which is detected by a malachite green-based dye. The intensity of Pi-dye complex was assessed by measuring the light absorbance at 635 nm wavelength using a microplate reader (BenchMark Plus, MS, USA). Absorbance of each experimental group was normalised to the vehicle control (DMSO).

[4] = biological target: human Drp1; design: method as in PMID 28350990; conditions: read-out: inhibitory constant (Ki), GTPase activity of human Drp1; cited from earlier work
[5] = biological target: T1, human Drp1 isoform 3; assay: Microscale thermophoresis (MST) binding; conditions: human Drp1 isoform 3, 5% DMSO
Experimental: The recombinant human Drp1 protein (His-tagged human Drp1 isoform 3, kindly provided by Professor Michael Ryan, Monash University, Australia) was generated as described previously. Briefly, cDNA for human Drp1 (isoform 3) was cloned into pET21b vector and transformed in Rosetta (DE3) competent cells (Novagen, MA, Merck Millipore). Transformed cells were propagated in Luria–Bertani broth and protein expression was initiated by the addition of 0.5 mM isopropyl β-D-1-thiogalactopyranoside. Cells were harvested by centrifugation at 3,500 g for 20 min at 4 °C, and the pellet was re-suspended in lysis buffer containing 50 mM Tris HCl (pH 7.3), 500 mM NaCl, 50 mM imidazole, 2.5 mM β-mercaptoethanol, 0.01 mM LEUPEP, 0.1 mM AEBSF and 1 mM benzaminidium chloride. The cells were lysed using a pre-cooled EmulsiFlex-C5 homogenizer (Avestin, Ontario, Canada) on ice and clarified by centrifugation at 17,000 g for 30 min. The clarified cell lysate was loaded onto a 5 mL Nickel Chelating Sepharose Fast Flow column (GE Healthcare, Buckinghamshire, UK) and Drp1 protein was eluted with wash buffer containing 50 mM Tris–HCl (pH 7.6), 150 mM NaCl, 2.5 mM β-mercaptoethanol and 400 mM imidazole. […]
Compound binding was assessed in against the human Drp1 isoform-3 protein using MST Monolith NT.115 instrument (NanoTemper Technologies, Mȕnchen, Germany). […]

[6] = biological target: T1, human Drp1 isoform 3; assay: Surface plasmon resonance (SPR) binding; conditions: concentrations as high as 100 µM
Experimental: The recombinant human Drp1 protein (His-tagged human Drp1 isoform 3, kindly provided by Professor Michael Ryan, Monash University, Australia) was generated as described previously. Briefly, cDNA for human Drp1 (isoform 3) was cloned into pET21b vector and transformed in Rosetta (DE3) competent cells (Novagen, MA, Merck Millipore). Transformed cells were propagated in Luria–Bertani broth and protein expression was initiated by the addition of 0.5 mM isopropyl β-D-1-thiogalactopyranoside. […]
All SPR experiments were performed on a Biacore T200 instrument (GE Healthcare Life Sciences, Uppsala, Sweden) at 25 °C in the presence of HEPES buffered saline containing 20 mM phosphate (pH 7.5), 137 mM NaCl, 2.7 mM KCl and 0.05% Tween-20 (HBS + P). […] Sensor surface was activated with 1:1 mixture of 0.4 M EDC and 0.1 M NHS for 7 min, followed by incremental injections of the protein to reach ~ 8000 RU (flow rate 10 μL/minute) for a calculated maximum analyte binding capacity (Rmax) of 30–50 RU. […]
Compounds were dissolved in 100% dimethyl sulfoxide (DMSO) and then added to HBS + P at a final DMSO concentration of 2%. […] SPR results were analysed using the Biacore T200 Evaluation Software v.1.

T1 sequence (O00429 1-699 isoform O00429-4): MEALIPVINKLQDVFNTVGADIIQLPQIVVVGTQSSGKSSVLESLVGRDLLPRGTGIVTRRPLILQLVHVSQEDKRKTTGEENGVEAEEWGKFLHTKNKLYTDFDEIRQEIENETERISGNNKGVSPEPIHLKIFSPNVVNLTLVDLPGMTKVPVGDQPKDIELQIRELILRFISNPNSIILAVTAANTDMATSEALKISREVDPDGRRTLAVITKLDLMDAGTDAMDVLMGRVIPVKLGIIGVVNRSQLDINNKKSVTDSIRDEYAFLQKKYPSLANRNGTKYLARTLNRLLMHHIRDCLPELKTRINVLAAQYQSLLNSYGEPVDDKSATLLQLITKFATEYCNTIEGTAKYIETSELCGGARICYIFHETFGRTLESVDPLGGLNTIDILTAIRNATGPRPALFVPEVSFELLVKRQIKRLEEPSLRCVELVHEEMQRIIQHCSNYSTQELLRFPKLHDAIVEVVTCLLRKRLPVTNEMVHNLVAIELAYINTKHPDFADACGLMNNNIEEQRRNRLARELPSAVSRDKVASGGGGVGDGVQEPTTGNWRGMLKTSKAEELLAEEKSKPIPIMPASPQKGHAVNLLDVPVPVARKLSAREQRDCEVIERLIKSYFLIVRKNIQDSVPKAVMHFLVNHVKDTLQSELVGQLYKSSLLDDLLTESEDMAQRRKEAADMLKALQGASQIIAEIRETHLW

Row | SMILES | LDH release [1] [fold change] | aggregation threshold ([2]; 2% DMSO with 0.05% Tween-20) [µM] | aggregation threshold ([2]; 5% DMSO with 0.05% Tween-20) [µM] | aggregation threshold ([2]; PBS, 2% DMSO) [µM] | aggregation threshold ([2]; PBS, 5% DMSO) [µM] | concentrations at which the compound aggregated ([2]; assay buffer containing DMSO and Tween-20) | inhibition of GTPase activity of human Drp1 ([3]; 5 µM) | inhibition of GTPase activity of human Drp1 ([3]; increasing concentration above 5 µM) | Ki [4] [µM] | Kd [5] [µM] | SPR binding response [6]
1 | COc1cccc2c1C(=O)c1c(O)c3c(c(O)c1C2=O)C[C@@](O)(C(=O)CO)C[C@@H]3O[C@H]1C[C@H](N)[C@H](O)[C@H](C)O1 [doxorubicin, reference compound] | 3.41 ± 0.11 | – | – | – | – | – | – | – | – | – | –
2 | COc1cc(-n2c(=S)[nH]c3ccccc3c2=O)c(Cl)cc1Cl [Mdivi-1] | – | 70 | 18.5 | 20 | 35 | above 18.5 µM | significant inhibition | not observed | > 1200 | 0.23 | no binding response
